“And” between values parts separate entries of the source, which are not always exact repeats. Equal entries are not always repeated.
Legend:
Format in all cases: in vivo
transgenic rice Line 26 = experiment: Response of rice plants to various herbicides, seed set in greenhouse; conditions: post-emergence, 1× g ai/ha: PURSUIT 62.5, CADRE 32, ARSENAL 24, RAPTOR 32, SCEPTER 125, ACCENT 35, CLASSIC 5, AC322,140 20, LONDAX 68
Procedure, shortened: (§1)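 Greenhouse flats, 10 plants per cell; 9 herbicides (imidazolinones, rice herbicides, nicosulfuron, chlorimuron-ethyl) sprayed pre- or post-emergence at 1, 2, 4 and 6× rates, three replications. Fresh weight taken 32 days (pre) or 29 days (post, 5 plants/cell) after spraying; remaining plants grown to maturity for percentage filled-seed set.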

transgenic rice Line 29 = experiment: as above; conditions: post-emergence, 1× g ai/ha: PURSUIT 62.5, CADRE 32, ARSENAL 24, RAPTOR 32, SCEPTER 125, ACCENT 35, CLASSIC 5, AC322,140 20, LONDAX 68
Procedure, shortened: as §1

[1] = tested on: untransformed Nt rice plants; experiment: as above; conditions: post-emergence, 1× g ai/ha: PURSUIT 62.5, CADRE 32, ARSENAL 24, RAPTOR 32, SCEPTER 125, ACCENT 35, CLASSIC 5, AC322,140 20, LONDAX 68
Procedure, shortened: as §1

[2] = tested on: 3395IR (homozygous XA17 imi-resistant corn line); experiment: Greenhouse spray test of corn lines with imidazolinone herbicides, injury score; conditions: for Score, individual plants (0 dead plants, 5 healthy plants with no injury): 16 days after treatment; for M.S.: score 0 (dead) to 5 (healthy), 16 days
[3] = tested on: non-transformed control corn line BxA (B73×A188); experiment: as above; conditions: for Score, individual plants (0 dead plants, 5 healthy plants with no injury): 16 days after treatment; for M.S.: score 0 (dead) to 5 (healthy), 16 days
[4] = tested on: transgenic corn hybrid BAa-4; experiment: as above; conditions: for Score, individual plants (0 dead plants, 5 healthy plants with no injury) / M.S.: BAa-4; for Score, individual plants (0 dead plants, 5 healthy plants with no injury): 16 days after treatment; for M.S.: score 0 (dead) to 5 (healthy), 16 days
[5] = tested on: transgenic corn hybrid MAa-7; experiment: as above; conditions: for Score, individual plants (0 dead plants, 5 healthy plants with no injury) / M.S.: MAa-7; for Score, individual plants (0 dead plants, 5 healthy plants with no injury): 16 days after treatment; for M.S.: score 0 (dead) to 5 (healthy), 16 days
[6] = tested on: 8692IT (heterozygous XI12 imi-tolerant corn line); experiment: as above; conditions: for Score, individual plants (0 dead plants, 5 healthy plants with no injury): 16 days after treatment; for M.S.: score 0 (dead) to 5 (healthy), 16 days
[7] = 4×: PURSUIT 250, RAPTOR 160, ARSENAL 96, CADRE 400 g/ha
[8] = 8×: PURSUIT 500, RAPTOR 320, ARSENAL 192, CADRE 800 g/ha
[9] = 16×: RAPTOR 640 g/ha, ARSENAL 384 g/ha, CADRE 1.6 kg/ha

Structure (SMILES): COCc1cnc(C2=NC(C)(C(C)C)C(=O)N2)c(C(=O)O)c1 (centres unmarked) [RAPTOR ®, imazamox]
- % seed-set (transgenic rice Line 26; 1× rate): 87%
- No. filled seeds/3 panicles (transgenic rice Line 26; 1× rate): 156
- Total No. of kernels/3 panicles (transgenic rice Line 26; 1× rate): 180
- % seed-set (transgenic rice Line 26; 2× rate): 89%
- No. filled seeds/3 panicles (transgenic rice Line 26; 2× rate): 172
- Total No. of kernels/3 panicles (transgenic rice Line 26; 2× rate): 193
- % seed-set (transgenic rice Line 26; 4× rate): 91%
- No. filled seeds/3 panicles (transgenic rice Line 26; 4× rate): 166
- Total No. of kernels/3 panicles (transgenic rice Line 26; 4× rate): 183
- % seed-set (transgenic rice Line 26; 6× rate): 77%
- No. filled seeds/3 panicles (transgenic rice Line 26; 6× rate): 136
- Total No. of kernels/3 panicles (transgenic rice Line 26; 6× rate): 167
- % seed-set (transgenic rice Line 29; 1× rate): 89%
- No. filled seeds/3 panicles (transgenic rice Line 29; 1× rate): 161
- Total No. of kernels/3 panicles (transgenic rice Line 29; 1× rate): 180
- % seed-set (transgenic rice Line 29; 2× rate): 80%
- No. filled seeds/3 panicles (transgenic rice Line 29; 2× rate): 137
- Total No. of kernels/3 panicles (transgenic rice Line 29; 2× rate): 171
- % seed-set (transgenic rice Line 29; 4× rate): 91%
- No. filled seeds/3 panicles (transgenic rice Line 29; 4× rate): 152
- Total No. of kernels/3 panicles (transgenic rice Line 29; 4× rate): 167
- % seed-set (transgenic rice Line 29; 6× rate): 80%
- No. filled seeds/3 panicles (transgenic rice Line 29; 6× rate): 125
- Total No. of kernels/3 panicles (transgenic rice Line 29; 6× rate): 149
- % seed-set ([1]; 1× rate): 0%
- No. filled seeds/3 panicles ([1]; 1× rate): 0
- Total No. of kernels/3 panicles ([1]; 1× rate): 0
- % seed-set ([1]; 2× rate): 0%
- No. filled seeds/3 panicles ([1]; 2× rate): 0
- Total No. of kernels/3 panicles ([1]; 2× rate): 0
- % seed-set ([1]; 4× rate): 0%
- No. filled seeds/3 panicles ([1]; 4× rate): 0
- Total No. of kernels/3 panicles ([1]; 4× rate): 0
- % seed-set ([1]; 6× rate): 0%
- No. filled seeds/3 panicles ([1]; 6× rate): 0
- Total No. of kernels/3 panicles ([1]; 6× rate): 0
- Score, individual plants (0 dead plants, 5 healthy plants with no injury) [2, 7]: 5
- M.S. [2, 7]: 5
- Score, individual plants (0 dead plants, 5 healthy plants with no injury) [2, 8]: 5
- M.S. [2, 8]: 5
- Score, individual plants (0 dead plants, 5 healthy plants with no injury) [2, 9]: 5
- M.S. [2, 9]: 5
- Score, individual plants (0 dead plants, 5 healthy plants with no injury) [3, 7]: 0
- M.S. [3, 7]: 0
- Score, individual plants (0 dead plants, 5 healthy plants with no injury) [3, 8]: 0
- M.S. [3, 8]: 0
- Score, individual plants (0 dead plants, 5 healthy plants with no injury) [3, 9]: 0
- M.S. [3, 9]: 0
- growth of transgenic line BAa-4 ([4]; 4× (160 g/ha)): slightly affected
- Score, individual plants (0 dead plants, 5 healthy plants with no injury) [4, 7]: 3 and 4 (4×)
- M.S. [4, 7]: 3.8
- Score, individual plants (0 dead plants, 5 healthy plants with no injury) [4, 8]: 4 (4×) and 0
- M.S. [4, 8]: 3.2
- Score, individual plants (0 dead plants, 5 healthy plants with no injury) [4, 9]: 3 and 0 (3×) and 1
- M.S. [4, 9]: 0.8
- performance of transgenic line MAa-7 ([5]; 4× (160 g/ha)): performed well
- Score, individual plants (0 dead plants, 5 healthy plants with no injury) [5, 7]: 4 and 5 (4×)
- M.S. [5, 7]: 4.8
- Score, individual plants (0 dead plants, 5 healthy plants with no injury) [5, 8]: 3 (3×) and 2 and 4
- M.S. [5, 8]: 3
- Score, individual plants (0 dead plants, 5 healthy plants with no injury) [5, 9]: 1
- M.S. [5, 9]: 1
- Score, individual plants (0 dead plants, 5 healthy plants with no injury) [6, 7]: 4 and 3 (3×) and 2
- M.S. [6, 7]: 3
- Score, individual plants (0 dead plants, 5 healthy plants with no injury) [6, 8]: 3 (2×) and 2 (2×)
- M.S. [6, 8]: 2.5
- Score, individual plants (0 dead plants, 5 healthy plants with no injury) [6, 9]: 2 (2×) and 1 and 0 (2×)
- M.S. [6, 9]: 1

From patent US6653529B2, “Use of the maize X112 mutant ahas 2 gene and imidazolinone herbicides for selection of transgenic monocots, maize, rice and wheat plants resistant to the imidazolinone herbicides” (BASF Aktiengesellschaft, priority 2000, dated 2003)
